Consider 25 compounds from patent US10323018B2 (Millennium Pharmaceuticals, Inc., priority 2015, dated 2019).

In one assay the target is hNAMPT protein (Homo sapiens (Human), UniProt P43490). Kind of assay: NAMPT enzyme assay (TR-FRET/HTRF with BodiPY ligand). It counts as binding. Conditions: for inhibition at 1 µM: read-out: Percent Inhibition; for IC50: NAMPT inhibition, IC50 range class. A digest of the protocol:
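His-tagged hNAMPT with anti-6His-Tb, incubated with compound and BodiPY ligand for 1 h at rt in the dark, in Tris-HCl pH 7.5 buffer with DTT, NaCl, MgCl2 and Tween 20. TR-FRET measured with 320 nm excitation as the 520/486 nm emission ratio. IC50 fitted relative to DMSO controls.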
A general note: Time-resolved FRET reads energy transfer from a long-lived donor to a nearby acceptor.

A further assay relates to PC3 cells. Put plainly: PC3 growth inhibition (Cell-titer glo, 72 hours). It is filed as cell-based. Conditions: Homo sapiens, PC-3, 72 h, read-out: Percent Viability, PC3 cells, compound concentration 1.667 μM, 72 hours. A digest of the protocol:
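PC3 cells grown in RPMI1640 plated at 8×10^4 cells/ml, incubated overnight, then exposed to compound diluted in AIM serum-free medium for 72 h at 37 °C, 5% CO2. Luminescence by CellTiter-Glo relative to DMSO controls; % viability at single concentration, GI50 or LD50 from concentration-response curves.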

The mark [1] stands for this setting: NAMPT inhibition at compound concentration 1 μM.

Read-outs that look alike come from different tables or passages of the source.

Sequence of hNAMPT protein (P43490 whole entry): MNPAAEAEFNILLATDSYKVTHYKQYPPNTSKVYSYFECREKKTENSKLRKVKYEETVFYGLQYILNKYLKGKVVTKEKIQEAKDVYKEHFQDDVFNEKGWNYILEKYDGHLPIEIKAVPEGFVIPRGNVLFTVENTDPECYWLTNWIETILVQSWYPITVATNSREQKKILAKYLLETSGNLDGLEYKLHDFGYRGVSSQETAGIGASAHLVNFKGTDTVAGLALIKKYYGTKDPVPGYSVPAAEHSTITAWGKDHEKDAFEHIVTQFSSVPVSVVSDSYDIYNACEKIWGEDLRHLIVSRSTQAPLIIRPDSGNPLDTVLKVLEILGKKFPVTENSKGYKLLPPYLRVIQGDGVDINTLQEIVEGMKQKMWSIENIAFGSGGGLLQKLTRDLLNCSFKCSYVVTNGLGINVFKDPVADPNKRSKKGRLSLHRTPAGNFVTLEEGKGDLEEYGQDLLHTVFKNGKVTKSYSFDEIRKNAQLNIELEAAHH

Usually inhibition stands for the drop in the measured response relative to a control, in per cent. The IC50 is the concentration that inhibits the measured activity by half. A low value points to inhibition by little substance. `COCCOc1cc(-c2ccc(F)cc2)nc2cc(C(=O)NCCc3c[nH]nc3C)ccc12` [Compound I-126, 2-(4-fluorophenyl)-4-(2-methoxyethoxy)-N-[2-(3-methyl-1H-pyrazol-4-yl)ethyl]quinoline-7-carboxamide]: the inhibition at 1 µM at hNAMPT protein (setting [1]) came to 91%. Further, the IC50 on hNAMPT protein was 50 to 100 nM. The viability at 1.667 µM with PC3 cells amounted to 2%.
As to `CCOc1cc(-c2ccc(F)c(Cl)c2)nc2cc(C(=O)NCCCc3ncc[nH]3)ccc12` [Compound I-56, 2-(3-chloro-4-fluorophenyl)-4-ethoxy-N-[3-(1H-imidazol-2-yl)propyl]quinoline-7-carboxamide], the inhibition at 1 µM at hNAMPT protein (setting [1]) was 99%. This compound registered a concentration for half-maximal inhibition (IC50) on hNAMPT protein below 10 nM. In the assay with PC3 cells, the viability at 1.667 µM worked out at 1%.
For `CCOc1cc(-c2cncc(OC)c2)nc2cc(C(=O)NCCCc3nnc[nH]3)ccc12` [Compound I-210, 4-ethoxy-2-(5-methoxypyridin-3-yl)-N-[3-(4H-1,2,4-triazol-3-yl)propyl]quinoline-7-carboxamide], the inhibition at 1 µM on hNAMPT protein (setting [1]) was 94%. The compound further gave an IC50 against hNAMPT protein of 10 to 50 nM. Moreover, in the assay with PC3 cells, the viability at 1.667 µM amounted to 1%.
Take `CCOc1cc(-c2ccnc(OC)c2)nc2cc(C(=O)NCCCc3nnc[nH]3)ccc12` [Compound I-114, 4-ethoxy-2-(2-methoxypyridin-4-yl)-N-[3-(4H-1,2,4-triazol-3-yl)propyl]quinoline-7-carboxamide]: the inhibition at 1 µM at hNAMPT protein (setting [1]) came to 97%. Also, the IC50 against hNAMPT protein lay within 10 to 50 nM. Also, the viability at 1.667 µM in the assay with PC3 cells worked out at 2%.
On the same counts, the results for `CCCc1cc(OCC)c2ccc(C(=O)NCCCc3ncc[nH]3)cc2n1` [Compound I-226, N-(3-(1H-imidazol-2-yl)propyl)-4-ethoxy-2-propylquinoline-7-carboxamide] are 86%, above 100 nM and 14%.
In the case of `CCOc1cc(-c2ccnc(OC)c2)nc2cc(C(=O)NCc3nc4cnccc4[nH]3)ccc12` [Compound I-194, 4-ethoxy-N-(1H-imidazo[4,5-c]pyridin-2-ylmethyl)-2-(2-methoxypyridin-4-yl)quinoline-7-carboxamide], the inhibition at 1 µM on hNAMPT protein (setting [1]) was found to be 100%. This compound also yielded an IC50 against hNAMPT protein below 10 nM. For the same compound, the viability at 1.667 µM in the assay with PC3 cells stood at 3%.
With `CCCc1nc(-c2ccc(F)cc2)nc2cc(C(=O)NCCCc3ncc[nH]3)ccc12` [Compound I-16, 2-(4-fluorophenyl)-N-[3-(1H-imidazol-2-yl)propyl]-4-propylquinazoline-7-carboxamide], the inhibition at 1 µM at hNAMPT protein (setting [1]) worked out at 100%. At hNAMPT protein, this compound had an IC50 below 10 nM. For the same compound, the viability at 1.667 µM in the assay with PC3 cells was determined as 0%.
The like results for `CCOc1cc(-c2ccnc(OC)c2)nc2cc(C(=O)NCCc3nnc[nH]3)ccc12` [Compound I-191, 4-ethoxy-2-(2-methoxypyridin-4-yl)-N-[2-(4H-1,2,4-triazol-3-yl)ethyl]quinoline-7-carboxamide] were, in that order, 79%, above 100 nM and 10%.
In the case of `CCOc1cc(-c2ccc(C)nc2OC)nc2cc(C(=O)NCCCc3nc[nH]n3)ccc12` [Compound I-183, 4-ethoxy-2-(2-methoxy-6-methylpyridin-3-yl)-N-[3-(1H-1,2,4-triazol-3-yl)propyl]quinoline-7-carboxamide], at hNAMPT protein (setting [1]), the inhibition at 1 µM was found to be 94%. Also, the half-inhibitory concentration (IC50) against hNAMPT protein lay in the range of 50 to 100 nM. The viability at 1.667 µM in the assay on PC3 cells was 2%.
The like results for `CCOc1cc(-c2ccnc(C)c2)nc2cc(C(=O)NCc3ccn4ncnc4c3)ccc12` [Compound I-86, 4-ethoxy-2-(2-methylpyridin-4-yl)-N-([1,2,4]triazolo[1,5-a]pyridin-7-ylmethyl)quinoline-7-carboxamide] were, in that order, 99%, below 10 nM and 2%.
In the case of `COCc1nc(-c2ccc(Cl)cc2)nc2cc(C(=O)NCCCc3ncc[nH]3)ccc12` [Compound I-25, 2-(4-chlorophenyl)-N-[3-(1H-imidazol-2-yl)propyl]-4-(methoxymethyl)quinazoline-7-carboxamide], at hNAMPT protein, the IC50 was below 10 nM and the inhibition at 1 µM was determined as 99%. In addition, the viability at 1.667 µM with PC3 cells was found to be 0%.
For the compound `CCOc1cc(-c2cccnc2OC)nc2cc(C(=O)NCc3nc4ccncc4[nH]3)ccc12` [Compound I-192, 4-ethoxy-N-(3H-imidazo[4,5-c]pyridin-2-ylmethyl)-2-(2-methoxypyridin-3-yl)quinoline-7-carboxamide], the inhibition at 1 µM at hNAMPT protein (setting [1]) came out at 100%. Moreover, the concentration for half-maximal inhibition (IC50) against hNAMPT protein was below 10 nM. Moreover, the viability at 1.667 µM in the assay with PC3 cells amounted to 3%.
As to `CCOc1cc(-c2ccc(F)c(F)c2)nc2cc(C(=O)NCCCc3ncc[nH]3)ccc12` [Compound I-52, 2-(3,4-difluorophenyl)-4-ethoxy-N-[3-(1H-imidazol-2-yl)propyl]quinoline-7-carboxamide], the inhibition at 1 µM on hNAMPT protein (setting [1]) came to 99%. The IC50 at hNAMPT protein was below 10 nM. Also, the viability at 1.667 µM in the assay on PC3 cells was determined as 4%.
Regarding `CCOc1cc(N2CCCC2)nc2cc(C(=O)NCCCc3ncc[nH]3)ccc12` [Compound I-62, 4-Ethoxy-N-[3-(1H-imidazol-2-yl)propyl]-2-(pyrrolidin-1-yl)quinoline-7-carboxamide], the inhibition at 1 µM on hNAMPT protein (setting [1]) is 95%. The compound further registered an IC50 against hNAMPT protein of 50 to 100 nM. In addition, in the assay on PC3 cells, the viability at 1.667 µM came out at 2%.
On the same counts, the results for `CCCc1cc(-c2ccc(F)cc2)nc2cc(C(=O)NCCCc3ncn[nH]3)ccc12` [Compound I-171, 2-(4-fluorophenyl)-4-propyl-N-[3-(4H-1,2,4-triazol-3-yl)propyl]quinoline-7-carboxamide] are 97%, 10 to 50 nM and 2%.
For `CCOc1cc(-c2ccc(F)cc2)nc2cc(C(=O)NCCc3n[nH]nc3C)ccc12` [Compound I-203, 4-ethoxy-2-(4-fluorophenyl)-N-[2-(5-methyl-2H-1,2,3-triazol-4-yl)ethyl]quinoline-7-carboxamide], the inhibition at 1 µM at hNAMPT protein (setting [1]) was determined as 98%. The compound further gave a half-inhibitory concentration (IC50) on hNAMPT protein below 10 nM. Besides, the viability at 1.667 µM in the assay with PC3 cells came to 2%.
Turning to `CCOc1cc(-c2ccc(F)cc2OC)nc2cc(C(=O)NCCc3cnn[nH]3)ccc12` [Compound I-108, 4-ethoxy-2-(4-fluoro-2-methoxyphenyl)-N-[2-(1H-1,2,3-triazol-5-yl)ethyl]quinoline-7-carboxamide], the inhibition at 1 µM at hNAMPT protein (setting [1]) is 99%. At hNAMPT protein, the 50% inhibitory concentration (IC50) is 10 to 50 nM. In addition, in the assay with PC3 cells, the viability at 1.667 µM came to 3%.
With `CCOc1cc(-c2ccnc(C)c2)nc2cc(C(=O)NCCCc3[nH]nnc3C)ccc12` [Compound I-75, 4-ethoxy-2-(2-methylpyridin-4-yl)-N-[3-(4-methyl-1H-1,2,3-triazol-5-yl)propyl]quinoline-7-carboxamide], at hNAMPT protein (setting [1]), the inhibition at 1 µM turned out to be 94%. Moreover, the IC50 against hNAMPT protein lay within 10 to 50 nM. Further, in the assay with PC3 cells, the viability at 1.667 µM was 1%.
As to `CCOc1c(F)c(-c2ccc(F)cc2)nc2cc(C(=O)NCCCc3nnc[nH]3)ccc12` [Compound I-78, 4-ethoxy-3-fluoro-2-(4-fluorophenyl)-N-[3-(4H-1,2,4-triazol-3-yl)propyl]quinoline-7-carboxamide], the inhibition at 1 µM at hNAMPT protein (setting [1]) stood at 99%. For the same compound, on hNAMPT protein, the IC50 is below 10 nM. In addition, in the assay with PC3 cells, the viability at 1.667 µM was determined as 2%.
For `CCOc1cc(-c2cnc(OC)cc2C)nc2cc(C(=O)NCCCc3nnc[nH]3)ccc12` [Compound I-145, 4-ethoxy-2-(6-methoxy-4-methyl-3-pyridyl)-N-[3-(4H-1,2,4-triazol-3-yl)propyl]quinoline-7-carboxamide], the inhibition at 1 µM at hNAMPT protein (setting [1]) is 86%. This compound registered an IC50 at hNAMPT protein above 100 nM. Further, the viability at 1.667 µM in the assay on PC3 cells came out at 2%.
The like results for `CCOc1cc(-c2ccnc(C)c2)nc2cc(C(=O)NCCc3cnn[nH]3)ccc12` [Compound I-181, 4-ethoxy-2-(2-methylpyridin-4-yl)-N-[2-(1H-1,2,3-triazol-5-yl)ethyl]quinoline-7-carboxamide] were, in that order, 86%, above 100 nM and 9%.
With `CCOc1cc(-c2ccc(C)nc2)nc2cc(C(=O)NCCCc3cc[nH]n3)ccc12` [Compound I-111, 4-ethoxy-2-(6-methylpyridin-3-yl)-N-[3-(1H-pyrazol-3-yl)propyl]quinoline-7-carboxamide], at hNAMPT protein (setting [1]), the inhibition at 1 µM turned out to be 97%. Moreover, the half-inhibitory concentration (IC50) against hNAMPT protein lay in the range of 10 to 50 nM. Besides, in the assay on PC3 cells, the viability at 1.667 µM worked out at 2%.
As for `CCc1nc(-c2ccc(Cl)cc2)nc2cc(C(=O)NCCCc3ncc[nH]3)ccc12` [Compound I-33, 2-(4-chlorophenyl)-4-ethyl-N-[3-(1H-imidazol-2-yl)propyl]quinazoline-7-carboxamide], the inhibition at 1 µM at hNAMPT protein (setting [1]) worked out at 97%. The compound also yielded a half-maximal inhibitory concentration (IC50) on hNAMPT protein of 10 to 50 nM. Besides, in the assay with PC3 cells, the viability at 1.667 µM is 1%.
For the compound `CCOc1cc(-c2ccc(F)cc2)nc2cc(C(=O)NCCCc3n[nH]nc3C)ccc12` [Compound I-133, 4-ethoxy-2-(4-fluorophenyl)-N-[3-(5-methyl-2H-1,2,3-triazol-4-yl)propyl]quinoline-7-carboxamide], the inhibition at 1 µM at hNAMPT protein (setting [1]) is above 99%. In addition, the half-inhibitory concentration (IC50) against hNAMPT protein was below 10 nM. The viability at 1.667 µM with PC3 cells amounted to 2%.
With `CCCc1nc(-c2ccc(Cl)cc2)nc2cc(C(=O)NCCc3cncn3C)ccc12` [Compound I-1, 2-(4-chlorophenyl)-N-[2-(1-methyl-1H-imidazol-5-yl)ethyl]-4-propylquinazoline-7-carboxamide], the inhibition at 1 µM at hNAMPT protein (setting [1]) was above 99%. The compound further registered an IC50 against hNAMPT protein below 10 nM. The viability at 1.667 µM in the assay with PC3 cells amounted to 2%.
